Reference: patent publication US20040048814A1, “Sustained release composition contraining clarithromycin” (priority 2000, published 2004)
Where two headings read alike, the source gives them in different places.

Experiments:
[1] = In vitro dissolution test, paddle apparatus, pH 5.0 phosphate buffer; type: physicochemical; settings: pH 5.0, 100 rpm, 900 ml
Excerpt: The dissolution test is usually the most appropriate analytical tool to assess the quality of the oral formulations and especially of sustained release oral formulations.

[2] = cited from earlier work
[3] = cited from earlier work; remark: listed apart in the source

% of dissolved clarithromycin ([1]; after 5 minutes, amount of coating 12% of the weight of the core): about 40%
% of dissolved clarithromycin ([1]; after 5 minutes, amount of coating 14% of the weight of the core): about 20%
% of dissolved clarithromycin ([1]; after about 5 minutes, amount of coating 10% of the weight of the core): about 80%
SMILES: CC[C@H]1OC(=O)[C@H](C)[C@@H](O[C@H]2C[C@@](C)(OC)[C@@H](O)[C@H](C)O2)[C@H](C)[C@@H](O[C@@H]2O[C@H](C)C[C@H](N(C)C)[C@H]2O)[C@](C)(OC)C[C@@H](C)C(=O)[C@H](C)[C@@H](O)[C@]1(C)O [clarithromycin, Clarithromycin]
increase of bioavailability by food intake (mean) ([2]; food intake immediately before administration): 25%
time to achieve peak blood concentrations ([2]; oral administration): about 2 hours
availability after an oral dose ([2]; oral dose of 250 mg): ~55%
water solubility ([3]; pH below 5): good and quite constant
solubility ([3]; pH greater than 5): decreases dramatically
solubility ([3]; pH=8): quasi nil
